Experimental data reported in ChEMBL document CHEMBL1201862, “PubChem BioAssay data set” (2004).
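The compound was tested at five concentrations on cells cultured in 96-well plates, with a 48-hour exposure period. GI50 is the concentration that inhibits growth by half.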 Activity calls are given as the source filed them. Cut-off read from the data, not from the text of the source: active = GI50 up to about 1.1 µM and inactive = higher.

Legend:
Assay in all cases: NCI tumour cell line growth inhibition, 48 h
HL-60 = test system: HL-60
NCI-H460 = test system: NCI-H460
MCF7 = test system: MCF7
DU-145 = test system: DU-145
OVCAR-8 = test system: OVCAR-8
SF-268 = test system: SF-268
HOP-92 = test system: HOP-92
LOX IMVI = test system: LOX IMVI
HT-29 = test system: HT-29
SNB-75 = test system: SNB-75
M19-MEL = test system: M19-MEL
CAKI-1 = test system: CAKI-1
M14 = test system: M14
SK-MEL-2 = test system: SK-MEL-2
MDA-N = test system: MDA-N
SF-295 = test system: SF-295
OVCAR-5 = test system: OVCAR-5
TK-10 = test system: TK-10
BT-549 = test system: BT-549
SW-620 = test system: SW-620

Structure (SMILES)	GI50 (HL-60)	GI50 (NCI-H460)	GI50 (MCF7)	GI50 (DU-145)	GI50 (OVCAR-8)	GI50 (SF-268)	GI50 (HOP-92)	GI50 (LOX IMVI)	GI50 (HT-29)	GI50 (SNB-75)	GI50 (M19-MEL)	GI50 (CAKI-1)	GI50 (M14)	GI50 (SK-MEL-2)	GI50 (MDA-N)	GI50 (SF-295)	GI50 (OVCAR-5)	GI50 (TK-10)	GI50 (BT-549)	GI50 (SW-620)
NC(=O)c1cccc([C@@H]2O[C@H](CO)[C@@H](O)[C@H]2O)c1	3.21 µM (inactive)	48.5 µM (inactive)	> 37.3 µM (inactive)	30.6 µM (inactive)	3.79 µM (inactive)	6.81 µM (inactive)	18.5 µM (inactive)	36 µM (inactive)	16.2 µM (inactive)	4.18 µM (inactive)	21 µM (inactive)	18.4 µM (inactive)	3.2 µM (inactive)	> 97.1 µM (inactive)	24.1 µM (inactive)	9.06 µM (inactive)	47.4 µM (inactive)	29.6 µM (inactive)	14.5 µM (inactive)	7.78 µM (inactive)
CC[C@@]1(OP(=O)(O)O)C(=O)OCc2c1cc1n(c2=O)Cc2cc3ccccc3nc2-1	0.0306 µM (active)	0.0308 µM (active)	0.0358 µM (active)	0.0488 µM (active)	0.224 µM (active)	0.0486 µM (active)	0.447 µM (active)	0.0391 µM (active)	0.319 µM (active)	0.16 µM (active)	1.01 µM (active)	0.0467 µM (active)	0.0776 µM (active)	2.94 µM (inactive)	0.537 µM (active)	0.0301 µM (active)	0.231 µM (active)	2.55 µM (inactive)	0.201 µM (active)	0.403 µM (active)
CCC1(OC(=O)CN2CCN(CCO)CC2)C(=O)OCc2c1cc1n(c2=O)Cc2cc3ccccc3nc2-1 (stereo unspecified)	0.286 µM (active)	0.0614 µM (active)	0.107 µM (active)	0.0822 µM (active)	0.522 µM (active)	0.138 µM (active)	1.26 µM (inactive)	0.18 µM (active)	0.931 µM (active)	0.234 µM (active)	0.789 µM (active)	0.047 µM (active)	0.265 µM (active)	4.25 µM (inactive)	1.63 µM (inactive)	0.141 µM (active)	1.1 µM (active)	8.49 µM (inactive)	0.736 µM (active)	0.0991 µM (active)
Cc1cc(Cl)ccc1NC(=O)C1C(=O)N(c2ccc(Cl)cc2C)C(=O)/C1=N\N (stereo unspecified)	24.5 µM (inactive)	51.6 µM (inactive)			48.3 µM (inactive)	26.5 µM (inactive)	34.7 µM (inactive)	51.2 µM (inactive)	53.6 µM (inactive)	42.6 µM (inactive)	43.2 µM (inactive)	35.6 µM (inactive)	61.2 µM (inactive)	27 µM (inactive)		28.9 µM (inactive)	60.5 µM (inactive)	34.3 µM (inactive)		42.4 µM (inactive)
